A short description of series [1]: Solubility of DPCP in solvents for gels and ointments. The series is classed as physicochemical. The protocol: (§1) The compatibility and solubility of DPCP was determined in both isopropyl myristate (IPM) as well as Polysorbate 80 (PS80). […] Next, the stability of DPCP in these solvents was determined. A solution of 0.4% DPCP in isopropyl myristate and a solution of 0.4% DPCP in Polysorbate 80 was placed at 50° C. for two weeks. The stability of DPCP in these solvents was determined using reverse phase HPLC on a C18 column.

Series [2] can be described thus: Stability of DPCP in solvents at 50° C., reverse phase HPLC on a C18 column. The series is classed as physicochemical. The protocol:
as §1
For the development of a gel formulation, the stability of DPCP was determined in both Ethanol (ETOH) and Isopropanol (IPA) (0.4% DPCP solutions in each solvent was placed at 50° C. for two weeks; FIG. 2. All solutions contained 0.1% BHT). […] However, DPCP was stable in IPA. The stability of DPCP in the above solvents was determined using reverse phase HPLC on a C18 column.

A further series has as its system alopecia areata. As to conditions: cited from earlier work.
The next series relates to CTGF mRNA. As to conditions: rat skin, cited from earlier work; for reduction of CTGF mRNA: Days 1 and 3, biopsy Day 8, vs dose matched non-targeting control.

These results are taken from patent US20180263925A1, “METHODS FOR THE TREATMENT OF ALOPECIA AREATA UTILIZING GENE MODULATION APPROACHES” (RXi Pharmaceuticals Corporation, priority 2014, published 2018).

Where two headings read alike, the source gives them in different places.

As to `O=c1c(-c2ccccc2)c1-c1ccccc1` [DPCP, Diphenylcyclopropenone], the figures for the “solubility of DPCP” value in series [1] (in Polysorbate 80 (PS80)) and in series [1] (in isopropyl myristate (IPM)) were “highly soluble” and roughly 1.1 % w/w, respectively. In addition, the “stability of DPCP” value in series [2] (0.4% DPCP in Ethanol, 0.1% BHT, in the presence of citric acid, 50° C., two weeks) was “Some degradation”; in series [2] (0.4% DPCP in Isopropanol (IPA), 0.1% BHT, 50° C., two weeks) it was “stable”; in series [2] (0.4% DPCP in Polysorbate 80, 50° C., two weeks), “some degradation”; in series [2] (0.4% DPCP in isopropyl myristate, 50° C., two weeks), “stable”; in series [2] (in PS80 with butylated hydroxytoloune (BHT)), “reduce the amount of degradation”. Moreover, the “initial hair regrowth visible after” value with alopecia areata (alopecia areata patients, 2% sensitizing dose followed by 0.001% challenge doses) is 8-12 weeks. Moreover, the response rates in the series on alopecia areata (in over 25 different studies for treating AA with haptens) was 29-78%.

Regarding “RXI-109: CTGF-targeting sd-rxRNA consisting of sense strand SEQ ID NO:27 (TEG-Chl) and antisense strand SEQ ID NO:28 (sense GCACCUUUCUAGA; antisense UCUAGAAAGGUGCAAACAU; TEG-cholesterol on sense strand; (2)..(2) Modified with 2′Ome; (4)..(10) Modified with 2′Ome; (11)..(13) Phosphorothioate internucleotide bond; (12)..(13) Modified with 2′Ome; (13)..(13) Modified with TEG-Chl; (1)..(1) Modified with P; (1)..(1) Modified with 2′Ome; (2)..(3) Modified with 2′fluoro; (6)..(6) Modified with 2′Ome; (8)..(8) Modified with 2′Ome; (11)..(11) Modified with 2′fluoro; (13)..(13) Modified with 2′Ome; (13)..(19) Phosphorothioate internucleotide bond; (17)..(17) Modified with 2′Ome)”, the “reduction of CTGF mRNA” value is given as 51% in the series with CTGF mRNA (300 μg per intradermal injection) and 67% in the series with CTGF mRNA (600 μg per intradermal injection). Besides, the “duration of silencing of CTGF vs. non-targeting control” value in the series on CTGF mRNA (following two intradermal injections) is recorded as “sustained for at least five days”.
